The assay addresses T1, human Nav1.8 (hNav1.8) ion channel (Homo sapiens, UniProt Q9Y5Y9).
T1 construct: expressed in transfected cells
Put plainly: Inhibition of human Nav1.8 stably expressed in SH-SY-5Y cells (membrane potential dye fluorescence assay). The format is cell-based.

Setting [1] is: Table 1, SH-SY-5Y hNav1.8 cells, inhibition of membrane depolarisation, FLIPR membrane potential dye, 250 nM TTX, test concentration range 100 μM-0.05 μM, read-out: IC50.
Where [2] appears, read: Table 2 (compound numbers of the list in the description), SH-SY-5Y hNav1.8 cells, inhibition of membrane depolarisation, FLIPR membrane potential dye, 250 nM TTX, test concentration range 100 μM-0.05 μM, read-out: IC50.

Usually IC50 stands for the concentration that inhibits the measured activity by half.

Molecules are shown by their SMILES. Like-named read-outs stand apart in the source and are kept apart here.

T1 sequence (Q9Y5Y9 whole entry): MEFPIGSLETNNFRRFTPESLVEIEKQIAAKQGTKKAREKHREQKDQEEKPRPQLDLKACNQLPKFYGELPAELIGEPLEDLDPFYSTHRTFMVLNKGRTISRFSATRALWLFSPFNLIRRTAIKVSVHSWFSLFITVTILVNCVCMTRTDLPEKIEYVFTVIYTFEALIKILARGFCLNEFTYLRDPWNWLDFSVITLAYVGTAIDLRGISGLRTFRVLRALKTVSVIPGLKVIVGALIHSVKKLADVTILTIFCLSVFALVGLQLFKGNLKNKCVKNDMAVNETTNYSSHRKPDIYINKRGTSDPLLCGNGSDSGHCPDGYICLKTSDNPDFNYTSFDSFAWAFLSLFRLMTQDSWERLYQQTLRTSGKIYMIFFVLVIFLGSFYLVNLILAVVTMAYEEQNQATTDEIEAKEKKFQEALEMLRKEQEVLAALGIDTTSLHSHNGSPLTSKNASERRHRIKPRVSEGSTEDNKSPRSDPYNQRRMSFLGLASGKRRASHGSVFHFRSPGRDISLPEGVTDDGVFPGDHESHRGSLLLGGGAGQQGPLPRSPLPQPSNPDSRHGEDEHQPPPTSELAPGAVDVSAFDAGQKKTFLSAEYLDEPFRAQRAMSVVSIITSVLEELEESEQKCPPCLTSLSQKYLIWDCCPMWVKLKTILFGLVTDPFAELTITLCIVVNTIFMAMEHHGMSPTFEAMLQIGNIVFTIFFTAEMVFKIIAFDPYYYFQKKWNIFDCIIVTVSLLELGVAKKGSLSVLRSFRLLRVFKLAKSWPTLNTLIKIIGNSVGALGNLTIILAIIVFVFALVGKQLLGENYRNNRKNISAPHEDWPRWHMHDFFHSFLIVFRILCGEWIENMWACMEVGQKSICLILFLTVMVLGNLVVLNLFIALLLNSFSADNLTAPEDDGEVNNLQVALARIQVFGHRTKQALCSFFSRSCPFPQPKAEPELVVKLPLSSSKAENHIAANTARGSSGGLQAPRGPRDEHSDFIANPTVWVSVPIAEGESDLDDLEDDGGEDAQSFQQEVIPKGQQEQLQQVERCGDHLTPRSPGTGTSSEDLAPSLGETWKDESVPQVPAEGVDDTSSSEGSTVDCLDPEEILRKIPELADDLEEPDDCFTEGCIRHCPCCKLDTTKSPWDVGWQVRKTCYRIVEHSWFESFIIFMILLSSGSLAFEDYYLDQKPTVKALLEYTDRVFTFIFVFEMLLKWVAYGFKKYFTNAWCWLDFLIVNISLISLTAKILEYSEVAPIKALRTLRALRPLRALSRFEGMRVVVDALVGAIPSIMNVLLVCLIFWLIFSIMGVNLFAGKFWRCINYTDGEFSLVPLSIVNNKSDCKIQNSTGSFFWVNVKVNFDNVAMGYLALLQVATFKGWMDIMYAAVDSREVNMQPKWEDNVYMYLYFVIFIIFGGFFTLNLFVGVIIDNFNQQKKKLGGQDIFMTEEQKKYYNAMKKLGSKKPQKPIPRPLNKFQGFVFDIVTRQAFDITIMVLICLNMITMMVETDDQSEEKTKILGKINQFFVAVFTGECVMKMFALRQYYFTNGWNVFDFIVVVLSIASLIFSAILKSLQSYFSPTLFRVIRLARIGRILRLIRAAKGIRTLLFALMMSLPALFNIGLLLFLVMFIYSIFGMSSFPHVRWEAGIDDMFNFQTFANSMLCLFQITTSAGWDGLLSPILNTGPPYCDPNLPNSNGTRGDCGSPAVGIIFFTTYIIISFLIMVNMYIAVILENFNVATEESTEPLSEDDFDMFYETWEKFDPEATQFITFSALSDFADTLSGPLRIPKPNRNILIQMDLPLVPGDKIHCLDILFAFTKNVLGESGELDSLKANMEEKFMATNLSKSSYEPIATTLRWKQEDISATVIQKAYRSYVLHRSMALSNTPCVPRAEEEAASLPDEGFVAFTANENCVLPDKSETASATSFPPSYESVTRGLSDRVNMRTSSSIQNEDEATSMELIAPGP

For the compound `COc1ccc2c(c1)CN(CCNCCC(c1ccccc1)c1ccccc1)CC2` [Example 89, (3,3-Diphenyl-propyl)-[2-(7-methoxy-3,4-dihydro-1H-isoquinolin-2-yl)-ethyl]amine], the IC50 under setting [1] is 490 nM. The same measure, in the same setting: to `COc1cccc2c1CN(CC(=O)NC(c1ccccc1)c1ccccc1)CC2` [Example 19, N-Benzhydryl-2-(8-methoxy-3,4-dihydro-1H-isoquinolin-2-yl)-acetamide] belongs 730 nM.

`COc1cccc2c1CN(CC(=O)NCCCn1c3ccccc3c3ccccc31)CC2` [Compound 128, N-(3-Carbazol-9-yl-propyl)-2-(8-methoxy-3,4-dihydro-1H-isoquinolin-2-yl)-acetamide]: under setting [2], the IC50 worked out at 3510 nM. Turning to `COc1cc2c(cc1OC)CN(CC(=O)N1c3ccccc3S(=O)(=O)c3ccccc31)CC2` [Compound 151, 2-(6,7-Dimethoxy-3,4-dihydro-1H-isoquinolin-2-yl)-1-(5,5-dioxo-5H-5lambda*6*-phenothiazin-10-yl)-ethanone], under setting [2], the IC50 worked out at 7440 nM.

For `O=C(NCCN1CCc2cccc(O)c2C1)N1c2ccccc2Oc2ccccc21` [Compound 163, Phenoxazine-10-carboxylic acid [2-(8-hydroxy-3,4-dihydro-1H-isoquinolin-2-yl)-ethyl]-amide], under setting [2], the half-inhibitory concentration (IC50) came to 770 nM. Regarding `COc1cccc2c1CN(CC(=O)N1CCN(C(c3ccccc3)c3ccccc3)CC1)CC2` [Example 62, 1-(4-benzhydryl-piperazin-1-yl)-2-(8-methoxy-3,4-dihydro-1H-isoquinolin-2-yl)-ethanone], under setting [1], the IC50 amounted to 5630 nM.

In the case of `COc1cccc2c1CN(CCC(=O)N1c3ccccc3Oc3ccccc31)CC2` [Compound 189, 3-(8-Methoxy-3,4-dihydro-1H-isoquinolin-2-yl)-1-phenoxazin-10-yl-propan-1-one], the half-maximal inhibitory concentration (IC50) under setting [2] is 510 nM. In the case of `CC(CN1CCc2cccc(O)c2C1)OCc1ccccc1` (stereo not shown) [Example 48, 2-(2-Benzyloxy-propyl)-1,2,3,4-tetrahydro-isoquinolin-8-ol], the half-inhibitory concentration (IC50) under setting [1] worked out at 4840 nM. The compound `O=C(CN1CCc2cccc(O)c2C1)N(c1ccccc1)c1ccc(O)cc1` [Compound 176, 2-(8-Hydroxy-3,4-dihydro-1H-isoquinolin-2-yl)-N-(4-hydroxy-phenyl)-N-phenyl-acetamide] came in with an IC50 of 5950 nM. Consider `c1ccc(C(CN2CCc3ccccc3C2)c2ccccc2)cc1` [Example 12, 2-(2,2-Diphenyl-ethyl)1,2,3,4-tetrahydro-isoquinoline], for which, under setting [1], the IC50 was 990 nM. Still for that read-out and setting: then `COc1cccc2c1CN(CC(=O)N1CCN(C(c3ccc(F)cc3)c3ccc(F)cc3)CC1)CC2` [Example 63, 1-{4-[Bis-(4-fluoro-phenyl)-methyl]-piperazin-1-yl}-2-(8-methoxy-3,4-dihydro-1H-isoquinolin-2-yl)-ethanone], with 15800 nM. Regarding `COc1cccc2c1CN(CC(=O)N1CC(c3nnc(C)o3)Oc3ccccc31)CC2` (stereo not shown) [Compound 187, 2-(8-Methoxy-3,4-dihydro-1H-isoquinolin-2-yl)-1-[2-(5-methyl-[1,3,4]oxadiazol-2-yl)-2,3-dihydro-benzo[1,4]oxazin-4-yl]-ethanone], the IC50 under setting [2] is 19100 nM. With `O=C(CN1CCc2cccc(O)c2C1)NCCCn1c2ccccc2c2ccccc21` [Compound 129, N-(3-Carbazol-9-yl-propyl)-2-(8-hydroxy-3,4-dihydro-1H-isoquinolin-2-yl)-acetamide], the IC50 under setting [2] is 2480 nM.

For `COc1cccc2c1CN(CC(=O)N1c3ccccc3Sc3ccc(C(C)=O)cc31)CC2` [Compound 148, 1-(2-Acetyl-phenothiazin-10-yl)-2-(8-methoxy-3,4-dihydro-1H-isoquinolin-2-yl)-ethanone], the concentration for half-maximal inhibition (IC50) under setting [2] was found to be 5170 nM. Take `COc1cccc2c1CN(CC(=O)NCCC(c1ccccc1)c1ccccc1)CC2` [Example 22, N-(3,3-Diphenyl-propyl)-2-(8-methoxy-3,4-dihydro-1H-isoquinolin-2-yl)-acetamide]: under setting [1], the IC50 was found to be 810 nM. For `COc1cc2c(cc1OC)CN(CC(=O)NCCCC(c1ccccc1)c1ccccc1)CC2` [Compound 124, 2-(Dimethoxy-3,4-dihydro-1H-isoquinolin-2-yl)-N-(4,4-diphenyl-butyl)-acetamide], under setting [2], the IC50 was 590 nM. As for `CC(C)(C)C1COc2ccccc2N1C(=O)CN1CCc2cccc(O)c2C1` (stereo not shown) [Compound 211, 1-(3-tert-Butyl-2,3-dihydro-benzo[1,4]oxazin-4-yl)-2-(8-hydroxy-3,4-dihydro-1H-isoquinolin-2-yl)-ethanone], the IC50 under setting [2] worked out at 3030 nM. In the case of `O=C(CN1Cc2ccccc2C1)N1CCN(C(c2ccc(F)cc2)c2ccc(F)cc2)CC1` [Example 68, 1-{4-[Bis-(4-fluoro-phenyl)-methyl]-piperazin-1-yl}-2-(1,3-dihydro-isoindol-2-yl)-ethanone], the IC50 under setting [1] was determined as 1950 nM. On the same count and under the same terms, to `COc1ccc2c(c1)CN(CC(=O)NCCC(c1ccccc1)c1ccccc1)CC2` [Example 86, N-(3,3-Diphenyl-propyl)-2-(7-methoxy-3,4-dihydro-1H-isoquinolin-2-yl)-acetamide] belongs 1460 nM.

For `Nc1cccc2c1CN(CCCC(c1ccc(F)cc1)c1ccc(F)cc1)C2` [Compound 102, 2-[4,4-Bis-(4-fluoro-phenyl)-butyl]-2,3-dihydro-1H-isoindol-4ylamine], the IC50 under setting [2] was found to be 860 nM.

In the case of `Nc1cccc2c1CN(CC(=O)NC(c1ccccc1)c1ccccc1)CC2` [Compound 108, 2-(8-Amino-3,4-dihydro-1H-isoquinolin-2-yl)-N-benzhydryl-acetamide], the IC50 under setting [2] stood at 3480 nM. Same read-out and setting: then `O=C(CN1CCc2cccc(O)c2C1)N1c2ccccc2Sc2ccc(Cl)cc21` [Compound 141, 1-(2-Chloro-phenothiazin-10-yl)-2-(8-hydroxy-3,4-dihydro-1H-isoquinolin-2-yl)-ethanone], with 1850 nM.

Source of the values: US20070043024A1, “Azacyclic compounds as inhibitors of sensory neurone specific channels” (priority 2003, published 2007).
